Source: US8304420B2, “Substituted quinazolines for reducing platelet count” (Shire LLC, priority 2006, dated 2012)
Where two headings read alike, the source gives them in different places. Marks after values point to notes of the source that are not given here. One block for each compound: values may come before it.

How the values were obtained:
[1] = Conversion of prodrug to anagrelide in human plasma (LC/MS-MS); type: in vitro ADME; conditions: spiked 100 ng/mL, room temperature, first point of measurement immediately after mixing
Method: Such prodrugs are likely to be extremely rapidly and completely cyclised in plasma to the closed ring 3-alkylanagrelide analogues. […] Human plasma was spiked with anagrelide prodrug (final concentration 100 ng/mL). Immediately after mixing, and at 15, 30, 45 and 60 minutes afterward samples were analysed for anagrelide prodrug and anagrelide.

[2] = Aqueous solubility / solubility-pH profile
[3] = dog, in vivo
Method: The potential benefit of improved water solubility on the absorption of these open-ring analogues was shown in a comparative bioavailability study in the dog. Using the unsubstituted ethyl-5,6-dichloro-3,4-dihydro-2-(1H)-iminoquinazoline-3-acetate HBr as a model compound, a comparison was made of the systemic availability of anagrelide when given as this compound or as anagrelide itself in equimolar doses (7.7 & 6.1 mg/kg respectively).
The metabolite-to-drug exposure ratio after anagrelide was 1.5 compared to 0.9 after the prodrug.
The lesser variability was consistent with more efficient absorption. This study illustrated the potential benefits of the open-ring prodrugs to improve absorption.

[4] = Solubilities of salts in three solvents (Example 2); conditions: for solubility at 3 min: 20 °C, thermodynamic from solid
Method: (§1) The solubilities of various salts was investigated in three solvents [distilled water (pH 5.0), 50 mM ammonium formate (pH 7.9) and 0.1 M hydrochloric acid (pH0.6)]. An excess of the salt was suspended in the chosen medium and sonicated for 3 minutes. The mixture was centrifuged for 10 minutes, the supernatant liquid was collected and the solubility was measured.

[5] = system: PDEIII; test: PDEIII inhibition; type: biochemical; conditions: more potent than anagrelide itself
[6] = Plasma exposure to metabolite after treatment with anagrelide; type: in vivo
[7] = physchem; conditions: 20 °C, pH 5, water, thermodynamic from solid
Method: as §1

[8] = system: differentiation of human CD34+ stem cells into megakaryocytes; test: In vitro anti-megakaryocytic activity (model of megakaryocytopoiesis); type: cell-based
Excerpt: Such activity may be assessed using a well established model. Assessment of the in vitro anti-megakaryocytic activity—and potentially therefore the platelet lowering capability—of the anagrelide prodrugs can be determined using the model of megakaryocytopoiesis (Cohen-Solal et al., Thromb. Haemost. 1997, 78:37-41 and Cramer et al, Blood, 1997, 89:2336-46). This involves examining the differentiation of human CD34^+ stem cells into megakaryocytes which ultimately give rise to blood platelets.

[9] = Radiolabelling study in humans, oral 14C-labelled drug; type: in vivo
Method: Anagrelide HCl itself is a poorly soluble drug substance. In the pH range of 4-8, the solubility is less than 10 μg/mL. […] Thus over much of the physiological pH range the drug has very poor aqueous solubility. Even material dissolving in the stomach at pH 1-2 may precipitate in the duodenum at pH 5-6. This presents potential problems for the quantitative absorption from the most likely site for absorption, namely the upper small intestine. As a consequence anagrelide is micronised prior to filling into capsules for clinical use to ensure maximal absorption. […] However for those patients requiring larger doses either as the result of relative insensitivity to the drug, higher first-pass pre-systemic metabolism or greater body weight, the possibility exists for incomplete absorption. This would be expected to lead to increased variability in attained plasma drug concentrations and consequential variability in patient response.

[10] = 50 mM ammonium formate, pH 7.9, aqueous buffer
[11] = 0.1 M hydrochloric acid, pH 0.6, simulated gastric fluid
[12] = estimated from the solubility/pH profile

SMILES: Br.CCOC(=O)CN1Cc2c(ccc(Cl)c2Cl)NC1=N [ethyl-5,6-dichloro-3,4-dihydro-2-(1H)-iminoquinazoline-3-acetate HBr]
prodrug found in human plasma (conversion to anagrelide) [1]: no prodrug could be found
solubility ([2]; distilled water): ~5500 µg/mL
AUC for anagrelide, range across dogs ([3]; po): 367-1470 ng.hmL^−1
Cmax for anagrelide, range across dogs ([3]; po): 170-418 ngmL^−1
metabolite-to-drug exposure ratio ([3]; po): 0.9
fold higher Cmax for anagrelide than when the drug itself was administered ([3]; po, 6.1 mg/kg): approximately 17 fold
mean fold higher AUC for anagrelide than when the drug itself was administered ([3]; po, 6.1 mg/kg): 16 fold

solubility at 3 min [4, 10]: 4 µg/mL
solubility at 3 min [4, 11]: 215 µg/mL
solubility at 3 min ([4]; distilled water, pH 5, water): 20 µg/mL
SMILES: Br.CC1(C)C(=O)NC2=Nc3ccc(Cl)cc3CN21

solubility at 3 min [4, 10]: 16 µg/mL
solubility at 3 min [4, 11]: 46 µg/mL
solubility at 3 min ([4]; distilled water, pH 5, water): 7340 µg/mL
SMILES: CC(C)(C(=O)[O-])N1Cc2c(ccc(Cl)c2Cl)N=C1N.[Na+]

solubility at 3 min [4, 10]: 1 µg/mL
solubility at 3 min [4, 11]: 35 µg/mL
solubility at 3 min ([4]; distilled water, pH 5, water): 2 µg/mL
SMILES: Br.O=C1NC2=Nc3ccc(Cl)c(Cl)c3CN2C12CC2

plasma exposure to metabolite relative to the drug itself [6]: three times greater
SMILES: O=C1NC2=Nc3ccc(Cl)c(Cl)c3CN2C1O (stereo not drawn) [3-hydroxyanagrelide]
potency as inhibitor of PDEIII relative to anagrelide [5]: ~40 fold

SMILES: Cl.O=C1CN2Cc3c(ccc(Cl)c3Cl)N=C2N1
solubility at 3 min [7]: 10 µg/mL
solubility at 3 min [4, 10]: 11 µg/mL
solubility at 3 min [4, 11]: 169 µg/mL

IC50 [8]: ~160 nM
SMILES: CC1(C)C(=O)NC2=Nc3ccc(Cl)c(Cl)c3CN21 [3, 3, dimethyl anagrelide]

solubility at 3 min [4, 11]: 6430 µg/mL
Solubility, Ammonium formate (50 mM, pH 7.9) ([4]; ca. 20° C., 50 mM ammonium formate, pH 7.9): unstable
solubility at 3 min ([4]; distilled water, pH 5, water): 7060 µg/mL
SMILES: Br.COC(=O)C1(N2Cc3c(ccc(Cl)c3Cl)N=C2N)CC1

SMILES: Cl.O.O=C1CN2Cc3c(ccc(Cl)c3Cl)N=C2N1 [anagrelide, 6,7-Dichloro-1,5-dihydroimidazo[2,1-b]-quinazolin-2(3H)-one hydrochloride monohydrate]
absorption ([9]; implied from urinary recovery after oral 1 mg): > 75%
administered radioactivity recovered in the urine ([9]; oral 1 mg 14C-labelled drug): > 75%
IC50 ([8]; hydrochloride monohydrate): ~27 nM
dissociation constant pKa1 [2, 12]: 2.9
dissociation constant pKa2 [2, 12]: 9.8
AUC for anagrelide, range across dogs ([3]; po): 21.6-188 ng.hmL^−1
Cmax for anagrelide, range across dogs ([3]; po): 9.5-44.3 ngmL^−1
inherent absorption ([3]; male, 6.1 mg/kg): < 6.25%
metabolite-to-drug exposure ratio ([3]; male, po): 1.5
AUC0-t of 3-hydroxy anagrelide, mean ([3]; male, po, 6.1 mg/kg): 128 ng·h/mL
AUCinfin of 3-hydroxy anagrelide, mean ([3]; male, po, 6.1 mg/kg): 79.9 ng·h/mL
Cmax of 3-hydroxy anagrelide, mean ([3]; male, po, 6.1 mg/kg): 24.9 ng/mL
Tmax of 3-hydroxy anagrelide, median ([3]; male, po, 6.1 mg/kg): 1.5^b hours
t½ of 3-hydroxy anagrelide, calculated as ln2/(mean rate constant) ([3]; male, po, 6.1 mg/kg): 2.6^e hours
